{"source": "paper PMC6131539", "about": "“Behavioral Effects of a Potential Novel TAAR1 Antagonist” (Frontiers in Pharmacology, 2018)", "key": {"C57BL/6J mice": {"tested_on": "C57BL/6J mice", "assay": "Stereotypic counts, co-injection with cocaine, C57BL/6J mice", "assay_type": "in vivo", "settings": "5 and 25 mg/kg co-injected with cocaine 10 mg/kg; sum over 60 min"}, "TAAR1-KO mice [1]": {"tested_on": "TAAR1-KO mice", "assay": "Basal locomotor activity in TAAR1-KO mice", "assay_type": "in vivo", "settings": "5 and 25 mg/kg alone, 60 min", "method": "The Taarl^-/- (TAAR1-KO) mice were obtained from Lundbeck ([Wolinsky et al., 2007]). All wild type (WT) and TAAR1-KO mice used for experiments were generated from TAAR1-KO heterozygous mice in a C57BL/6J x 129S1/Sv mixed background. Experimentally naïve mice, of at least 12 weeks of age, were used for all behavioral experiments. The mice were randomly assigned to treatment or control groups, balanced by sex and weight. Locomotor activity was assessed using the automated locomotor analysis monitors (Omnitech Electronics, Columbus, OH, United States). The apparatus included four open field monitors. Each Open Field monitor consisted of sets of 16 light beams arrayed in the horizontal X and Y axes. The hardware detected beams broken by the animal, which allowed the software to determine the location of the mouse in the cage. Total distance covered by mice was used to characterize locomotor activity of the animals. The monitors were divided into four compartments (20 cm × 20 cm). Animals were tested individually for defined periods with 5-min intervals. The mice were first weighed and then placed into the apparatus, allowing for 30 min habituation. […] The locomotor activity was then measured for additional 1 h. […] The locomotor activity was assessed for 60 min following the injection. […]"}, "TAAR1-KO mice [2]": {"tested_on": "TAAR1-KO mice", "assay": "Cocaine-induced locomotor activity, co-injection, TAAR1-KO mice", "assay_type": "in vivo", "settings": "5, 15 and 25 mg/kg co-injected with cocaine 10 mg/kg", "method": "The Taarl^-/- (TAAR1-KO) mice were obtained from Lundbeck ([Wolinsky et al., 2007]). All wild type (WT) and TAAR1-KO mice used for experiments were generated from TAAR1-KO heterozygous mice in a C57BL/6J x 129S1/Sv mixed background.\n(§1) Experimentally naïve mice, of at least 12 weeks of age, were used for all behavioral experiments. The mice were randomly assigned to treatment or control groups, balanced by sex and weight. Locomotor activity was assessed using the automated locomotor analysis monitors (Omnitech Electronics, Columbus, OH, United States). The apparatus included four open field monitors. Each Open Field monitor consisted of sets of 16 light beams arrayed in the horizontal X and Y axes. The hardware detected beams broken by the animal, which allowed the software to determine the location of the mouse in the cage. Total distance covered by mice was used to characterize locomotor activity of the animals. The monitors were divided into four compartments (20 cm × 20 cm). Animals were tested individually for defined periods with 5-min intervals. The mice were first weighed and then placed into the apparatus, allowing for 30 min habituation. […] The locomotor activity was then measured for additional 1 h. […]\nThe locomotor activity was assessed for 60 min following the injection. […]"}, "[3]": {"tested_on": "WT littermates (C57BL/6J x 129S2/Sv)", "assay": "Stereotypic counts, co-injection with amphetamine, WT littermates", "assay_type": "in vivo, mice", "settings": "any dose (2.5, 5, 15 mg/kg) co-injected with amphetamine 2 mg/kg", "method": "as §1\n(§2) Supplementary file Image_2.TIF: FIGURE S2 In vivo studies with TAAR1-KO mice and compound 22 on stereotypic counts activity. […] The sum of stereotypic counts was assessed over 60 min after the injection of amphetamine and compound 22 in WT (solid bars) or TAAR1-KO mice (spotted bars). […] The sum of stereotypic counts was assessed over 60 min following the injection in WT (solid bars) or TAAR1-KO mice (dotted bars). […]"}, "[4]": {"tested_on": "WT littermates (C57BL/6J x 129S2/Sv)", "assay": "Stereotypic counts, co-injection with cocaine, WT littermates", "assay_type": "in vivo, mice", "settings": "15 and 25 mg/kg co-injected with cocaine 10 mg/kg", "method": "as §1, §2"}}, "data": [{"smiles": "Clc1ccc(CNCc2ccc(Cn3cncn3)cc2)c(Cl)c1", "note": "[compound 22]", "values": [{"measurement": "stereotypic counts", "setting": "C57BL/6J mice", "value": "increase in stereotypic counts"}, {"measurement": "effect on basal locomotor activity", "setting": "TAAR1-KO mice [1]", "value": "did not significantly alter"}, {"measurement": "effect on locomotor stimulating effects of cocaine", "setting": "TAAR1-KO mice [2]", "value": "significantly potentiate"}, {"measurement": "stereotypic counts", "setting": "[3]", "value": "did not have statistically enhanced stereotypic counts"}, {"measurement": "stereotypic counts", "setting": "[4]", "value": "enhanced stereotypic counts"}]}]}
